From patent US11440935B2, “3″,5″-dimethoxybenzoyl-3′-amino-3′-deoxy adenosine-5′-triphosphates and pharmaceutical uses thereof” (Danmir Therapeutics, LLC, priority 2018, dated 2022)
Values joined by “and” are separate entries in the source; they are usually repeats but may differ in a detail not shown here. Identical values can stand only once. “Also recorded” adds a separate entry of the source. Counter-ions that a name gives are not always drawn. Each block holds one molecule with its values, some of them ahead of it.

Assays:
P2X3 receptor = details: guinea pig airway-specific primary nodose ganglion cell afferents; cited from earlier work
conscious guinea-pigs = test: Aerosolized ATP-induced cough in conscious free moving guinea-pigs; assay type: in vivo, guinea-pig
Description: This study was performed in 6 guinea-pigs. The housing room was constantly ventilated, and the temperature kept at ˜23° C. After quarantine, the animals were individually placed in a whole-body, unrestrained, plethysmograph chamber (model PLY3215, Buxco Electronics Inc., Troy, N.Y.) for ˜40 min once a day for two continuous days before the cough test. All GPs were weighed before the cough study.
ATP was purchased from Sigma-Aldrich (Cat #A2383-10G). Solutions of ATP used for aerosol challenge were freshly made just prior to use by dissolving the powder in 0.9% saline (NaCl) solution. Solutions of DT-0111 used for aerosol administration were freshly made by dissolving the powder in 0.9% saline (NaCl) solution.
A plethysmograph chamber was continuously flushed with normoxic (21% O2 and 79% N2) room air at 2 L/min. The same amount of air was drawn through the chamber base outlets using a Buxco bias flow regulator to keep the chamber bias flow balanced. ATP or DT solution was aerosolized by using a vibrating mesh nebulizer (Ireland Ltd., Galway Ireland, AG-AL1100). The output rate of delivered aerosol was around 0.5 ml/min with droplet size (volume median diameter) at 2.5-4.0 μm (manufacture's indications). The aerosol was mixed with airflow and directly delivered into the plethysmograph chamber. The latter was placed in a standard chemical fume hood (size: 3×6 ft) installed in a standard laboratory.
A guinea-pig was placed in the chamber again after adaptation. Following stabilization, #1 guinea-pig was exposed to aerosolized ATP at 6 mg/ml, 24 mg/ml, and then 48 mg/ml for 5 min with an interval of 30 min. The remaining animals (#2-#6 guinea-pigs) were exposed to aerosolized ATP at 48 mg/ml for 5 min. Approximately 140 min later, the same dose of ATP was repeated immediately after DT-0111 aerosol inhalation (12 mg/ml for 5 min). […] The cough sound and behavioral activities were continuously monitored and recorded before (for 3 min), during 5 min aerosol delivery, and 20 min after cessation of the delivery.
Setup of the cough recording system. The top of the plethysmograph chamber was connected with a plastic tube that was attached by the nebulizer. Normoxic air driven by the nebulizer controller was flowed into the chamber and sucked out by the bias flow regulator with the in and out flow volume balanced (2.0 L/min). To detect cough, a microphone system was mounted in the roof of the chamber to record sound; a video camera was placed outside of the chamber to monitor animal body posture; and a Buxco pneumotachograph (differential pressure transducer) attached to the chamber to record airflow. All signals generated by video camera, microphone, and pressure transducer were amplified and recorded continuously by PowerLab/8 sp (model ML 785; ADInstruments Inc., Colorado Springs, Colo.) and a computer with the LabChart Pro 7 software.
Cough count. A typical cough response, as reported before (Girard et al., Eur Respir J, 1995; Blasko et al., American Journal of Advanced Drug Delivery. 5:131-138, 2017; Corboz et al., Journal of Pharmacology and Experimental Therapeutics. 363: 348-357, 2017), was defined by the simultaneous appearance of: 1) a transient and great change in the airflow (a rapid inspiration followed by rapid expiration); 2) a typical cough sound with the peak power density at 1-2 kHz in frequency spectrum (sneeze at 3.5-6.5 kHz); and 3) animal body (head) posture and movement.

P2X2/3 receptor = target: T1, P2X2/3 receptor (Rattus norvegicus, UniProt P49653+P49654); test: Nodose ganglion neuron assay of P2X2/3 receptor antagonism (whole-cell voltage-clamp); assay type: cell-based; details: rat nodose ganglionic cell; for antagonism of ATP-induced inward current: ATP 10 μM, whole-cell voltage clamp
T1 construct: Single neurons were enzymatically isolated from rats' nodose ganglia; from tissue; host or cells: dissociated nodose ganglion neurons of 17-day-old male Sprague-Dawley rats
T1 sequence (P49653 1-472): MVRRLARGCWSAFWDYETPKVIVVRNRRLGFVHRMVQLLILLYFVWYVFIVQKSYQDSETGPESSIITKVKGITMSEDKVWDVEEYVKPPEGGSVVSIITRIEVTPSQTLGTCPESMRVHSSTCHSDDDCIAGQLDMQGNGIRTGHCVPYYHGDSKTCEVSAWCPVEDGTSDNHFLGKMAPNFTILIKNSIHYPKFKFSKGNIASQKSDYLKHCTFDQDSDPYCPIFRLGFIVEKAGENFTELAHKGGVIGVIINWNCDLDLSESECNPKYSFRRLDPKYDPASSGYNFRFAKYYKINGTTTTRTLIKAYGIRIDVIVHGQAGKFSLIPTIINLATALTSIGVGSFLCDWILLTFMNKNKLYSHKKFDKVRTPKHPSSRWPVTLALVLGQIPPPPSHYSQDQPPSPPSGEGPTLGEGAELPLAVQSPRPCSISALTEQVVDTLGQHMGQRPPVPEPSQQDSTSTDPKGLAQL
T1 sequence (P49654 1-397): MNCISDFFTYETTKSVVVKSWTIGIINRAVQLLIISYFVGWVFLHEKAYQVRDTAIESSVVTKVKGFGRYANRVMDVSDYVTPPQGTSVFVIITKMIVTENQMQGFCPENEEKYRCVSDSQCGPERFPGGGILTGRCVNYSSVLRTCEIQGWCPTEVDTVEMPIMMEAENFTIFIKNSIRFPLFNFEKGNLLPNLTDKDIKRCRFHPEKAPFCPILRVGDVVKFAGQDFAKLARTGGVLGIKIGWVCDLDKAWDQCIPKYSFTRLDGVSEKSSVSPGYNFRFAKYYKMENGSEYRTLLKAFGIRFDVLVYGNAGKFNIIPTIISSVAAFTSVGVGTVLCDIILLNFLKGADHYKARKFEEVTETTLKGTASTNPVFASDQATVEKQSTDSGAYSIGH
Description: Single neurons were enzymatically isolated from rats' nodose ganglia as described by Zhong et al., Br J Pharmacol 1998; 125, 771-781. Briefly, 17- day old male Sprague-Dawley rats were killed by CO2 inhalation. Ganglia were rapidly dissected and placed in Leibovitz's L-15 medium (Life Technologies, Paisley, UK). Ganglia were desheathed, cut and incubated in 4 ml Ca^2+/Mg^2+-free Hanks' balanced salt solution with 10 mm Hepes buffer (pH 7.0) (HBSS) (Life Technologies) containing 1.5 mg ml-1 collagenase (Class-II; Worthington Biochemical Corporation, Reading, UK) and 6 mg ml-1 bovine serum albumin (Sigma) at 37° C. for 40 min. Ganglia were then incubated with 4 ml HBSS containing 1 mg ml-1 trypsin (Sigma) at 37° C. for 20 min. The solution was replaced with 3 ml of growth medium comprising L-15 medium supplemented with 10% bovine serum, 50 ng ml-1 nerve growth factor, 0.2% NaHCO3, 5.5 mg ml-1 glucose, 200 IU ml-1 penicillin and 200 μg ml-1 streptomycin. The ganglia were dissociated into single neurons by gentle trituration. The cells were then centrifuged at 160 g for 5 min, resuspended in 1 ml of growth medium, and plated onto 35 mm Petri dishes coated with 10 μg ml-1 laminin (Sigma). Cells were maintained at 37° C. in a humidified atmosphere containing 5% CO2 and used between 2 and 48 hours after plating.
Whole-cell voltage-clamp recordings were performed at room temperature using an Axopatch 200B amplifier (Axon Instruments, Union City, Calif., USA). Membrane potential was held at […]. The external solution contained (mM): 154 NaCl, 4.7 KCl, 1.2 MgCl2, 2.5 CaCl2), 10 Hepes, 5.6 glucose, and the pH was adjusted to 7.4 using NaOH. Recording electrodes (resistance […]) were filled with an internal solution which contained (mm): 56 citric acid, 3 MgCl2, 10 CsCl, 10 NaCl, […], 0.1 EGTA, 10 tetraethylammonium chloride, and the pH was adjusted to 7.2 using CsOH (total Cs+concentration 170 mm). […] Solution exchange measured by changes in open tip current was complete in 200 ms; however, complete exchange of solution around an intact cell was slower (<1 s). […]

P2X3-P2X2/3 = details: experimental animals; cited from earlier work
[1] = ATP (48 mg/ml) aerosol 5 min alone, per guinea-pig

Compound: COc1cc(C(C)C)c(Oc2cnc(N)nc2N)cc1I [AF-353]
effect on TRPV4 receptor activation effects (Aδ fiber stimulation and coughing) (P2X3 receptor): markedly attenuated

Compound: Nc1ncnc2c1ncn2[C@@H]1O[C@H](COP(=O)(O)OP(=O)(O)OP(=O)(O)O)[C@@H](O)[C@H]1O [ATP, adenosine 5′-triphosphate]
cough evoked by aerosolized ATP (conscious guinea-pigs; ATP 48 mg/ml, 5 min exposure, all animals): evoked significant coughs
Bout Cough B1# (cough number in first bout) (conscious guinea-pigs; [1]): 24 and 14 and 18 and 19 and 21
Individual Cough (conscious guinea-pigs; [1]): 3 and 0 (2×) and 1 (3×)
Subtotal coughs (conscious guinea-pigs; ATP (48 mg/ml) aerosol 5 min alone, per guinea-pig and Mean): 27 and 24 and 35 and 19 and 22

antagonism of ATP-induced inward current (P2X2/3 receptor; listed as 3″,5″-dimethoxybenzoyl-3′-amino-3′-deoxyadenosine-5′-triphosphate triethylammoni, Ammonium Salt): substantially abrogated
reversibility of antagonism on washout (P2X2/3 receptor; after washing out the antagonist): reversible
Compound: COc1cc(OC)cc(C(=O)NC2C(O)[C@H](n3cnc4c(N)ncnc43)O[C@@H]2COP(=O)(O)OP(=O)(O)OP(=O)(O)O)c1 (stereo partly drawn) [Compound 11, 3″,5″-Dimethoxybenzoyl-3′-amino-3′-deoxyadenosine-5′-triphosphate Triethyl Ammonium Salt]
antagonism of ATP-induced inward current (P2X2/3 receptor; listed as compound 11, Ammonium Salt): substantially abrogated; also recorded: complete antagonism at the higher concentrations

Compound: O=C(O)c1cc(C(=O)O)c(C(=O)N(Cc2cccc(Oc3ccccc3)c2)[C@H]2CCCc3ccccc32)cc1C(=O)O [Compound A-317491]
effect on cyclophosphamide (CYP)-induced cystitis (P2X3-P2X2/3): inhibit cyclophosphamide (CYP)-induced cystitis
